One assay concerns S. epidermidis. In words: Kill or inhibit growth/proliferation; morphology, biofilm and growth disruption (Tables 5, 6). Also: test concentration or dose not given here. Also noted: key: A: Peptide aggregates; B: Less hyphal formation; Clumps; Diffuse clumps and small polyps; F: Diffuse growth; H: Thin; I: Growth inhibition; Microcolony formation; Rippled; Small polyps; Thick; W: Halo formation on top, microlonies on bottom. Type of assay: cell-based, Staphylococcus epidermidis.

A further assay deals with S. pneumoniae. The assay is described as above. Type of assay: cell-based, Streptococcus pneumoniae. Also noted: key: A: Peptide aggregates; B: Less hyphal formation; Clumps; Diffuse clumps and small polyps; F: Diffuse growth; H: Thin; I: Growth inhibition; Microcolony formation; Rippled; Small polyps; Thick; W: Halo formation on top, microlonies on bottom.
In another assay the test system is E. coli. Described as above. The arrangement: key: A: Peptide aggregates; B: Less hyphal formation; Clumps; Diffuse clumps and small polyps; F: Diffuse growth; H: Thin; I: Growth inhibition; Microcolony formation; Rippled; Small polyps; Thick; W: Halo formation on top, microlonies on bottom. It counts as cell-based, Escherichia coli.
The subject of the next assay is MRSA. The assay is described as above. Also noted: key: A: Peptide aggregates; B: Less hyphal formation; Clumps; Diffuse clumps and small polyps; F: Diffuse growth; H: Thin; I: Growth inhibition; Microcolony formation; Rippled; Small polyps; Thick; W: Halo formation on top, microlonies on bottom. Type of assay: cell-based, Methicillin-resistant Staphylococcus aureus.

The next assay deals with E. faecalis. The assay is described as above. Also noted: key: A: Peptide aggregates; B: Less hyphal formation; Clumps; Diffuse clumps and small polyps; F: Diffuse growth; H: Thin; I: Growth inhibition; Microcolony formation; Rippled; Small polyps; Thick; W: Halo formation on top, microlonies on bottom. It counts as cell-based, Enterococcus faecalis.
In a further assay the test system is microorganisms. In words: Peptides having multiple activities (targeting/binding, antimicrobial, growth or phenotype altering). From the text:
In certain embodiments, peptides described herein can have multiple activities. Thus for example, a peptide can have both binding/targeting activity and antimicrobial activity. Such peptides can be used, e.g., in a chimeric construct, for any or all of these properties. Thus, for example, a peptide designated “B” in Table 8 can be used as a targeting peptide. If it is also designated G or M it can also be used for antimicrobial activity.

Assay [1] concerns microorganisms (e.g., bacteria, yeasts, fungi). In words: Targeting peptide binding to target microorganisms (Table 3). The conditions noted are these: microorganism(s) the targeting peptide binds, preferably 1x PBS.
Setting [2] is: peptide binding conducted in aqueous buffers varied by peptide solubility.

Entries after “also recorded” stand apart in the source; their conditions may differ. Ends that are not written are not given here.
For Organism, effect in this document: test concentration or dose not given here.

Turning to KTPNDKIHKTIIIKHIIL [PF-533], the “Organism, effect” value in the assay on S. epidermidis was “S. epidermidis (H)”; in the assay with S. pneumoniae it was “S. pneumoniae (C)”; with E. coli, “E. coli (R)”; in the assay with MRSA, “MRSA (H)”; with E. faecalis, “E. faecalis (C)”.

Regarding “PF-347: peptide having multiple activities (GIFTGVTVVVSLKHC; Peptide with targeting and/or antimicrobial activity)”, the “Organism, effect” value is given as “S. epidermidis (C)” with S. epidermidis, “E. coli (C)” in the assay on E. coli, “MRSA (C)” with MRSA and “E. faecalis (C)” with E. faecalis. In the assay with microorganisms, the Activities result is “G B”.

On to “PF-374: peptide having multiple activities (chain 1 HLFFVKGMFILCQKNQINDE; chain 2 HLFFVKGMFILCQKNQINDE; Peptide with targeting and/or antimicrobial activity)”, for which the “Organism, effect” value in the assay with S. epidermidis was “S. epidermidis (C)”; in the assay with E. coli, “E. coli (C)”; in the assay on MRSA it was “MRSA (M)”; in the assay with E. faecalis, “E. faecalis (C)”. In addition, in the assay with microorganisms, the Activities entry was “G B”.

Turning to “PF-376: peptide having multiple activities (chain 1 MTVFEALMLAIAFATLIVKISNKNDKK; chain 2 MTVFEALMLAIAFATLIVKISNKNDKK; Peptide with targeting and/or antimicrobial activity)”, the “Organism, effect” value is given as “S. epidermidis (C)” in the assay with S. epidermidis, “E. coli (C)” in the assay with E. coli, “MRSA (C)” in the assay with MRSA and “E. faecalis (C)” with E. faecalis. Further, in the assay with microorganisms, the Activities entry is on record as “G B”.

As for “PF-379: peptide having multiple activities (chain 1 VFVVLFIIYLASKLLTKLFPIKK; chain 2 VFVVLFIIYLASKLLTKLFPIKK; Peptide with targeting and/or antimicrobial activity)”, the “Organism, effect” value in the assay on S. epidermidis was “S. epidermidis (C)”; in the assay on E. coli, “E. coli (C)”; in the assay on MRSA it was “MRSA (C)”; with E. faecalis, “E. faecalis (C)”. For the same substance, the Activities entry in the assay with microorganisms was “G B”.

As to “PF-381: peptide having multiple activities (chain 1 QGANPCQQVGFTVNDPDCRLAKTV; chain 2 QGANPCQQVGFTVNDPDCRLAKTV; Peptide with targeting and/or antimicrobial activity)”, the “Organism, effect” value was “S. epidermidis (C)” in the assay on S. epidermidis, “E. coli (R)” in the assay on E. coli, “MRSA (C)” with MRSA and “E. faecalis (C)” in the assay on E. faecalis. For the same substance, the “Target(s)” value in assay [1] (binding in aqueous buffers depending on peptide solubility) is “E. coli; also recorded: P. aeruginosa; also recorded: C. jejuni”. In addition, the Activities result with microorganisms was “G B”.

Regarding “PF-386: peptide having multiple activities (chain 1 FTLTLITTIVAILNYKDKKK; chain 2 FTLTLITTIVAILNYKDKKK; Peptide with targeting and/or antimicrobial activity)”, the “Organism, effect” value is “S. epidermidis (C)” with S. epidermidis, “E. coli (C)” in the assay with E. coli, “MRSA (C)” with MRSA and “E. faecalis (C)” in the assay with E. faecalis. In the assay on microorganisms, the Activities entry is on record as “G B”.

On to “PF-396: peptide having multiple activities (LIYTILASLGVLTVLQAILGREPKAVKA; Peptide with targeting and/or antimicrobial activity)”, for which the “Organism, effect” value is listed as “S. epidermidis (S)” with S. epidermidis, “E. coli (C)” with E. coli, “MRSA (C)” in the assay on MRSA and “E. faecalis (C)” in the assay on E. faecalis. Further, the “Target(s)” value in assay [1] (setting [2]) is “S. epidermidis; also recorded: E. coli; also recorded: P. aeruginosa; also recorded: C. albicans; also recorded: E. faecalis; also recorded: C. jeikeium”. The Activities entry in the assay with microorganisms is “G B”.

Regarding “PF-398: peptide having multiple activities (ILVVLAGILLVVLSYVGISKFKMNC; Peptide with targeting and/or antimicrobial activity)”, the “Organism, effect” value was “S. epidermidis (C)” in the assay on S. epidermidis, “E. coli (C)” in the assay with E. coli, “MRSA (C)” in the assay with MRSA and “E. faecalis (C)” with E. faecalis. In addition, the Activities entry with microorganisms was “G B”.

Consider “PF-399: peptide having multiple activities (FPIISALLGAIICIAIYSFIVNRKA; Peptide with targeting and/or antimicrobial activity)”, for which the “Organism, effect” value in the assay on S. epidermidis is listed as “S. epidermidis (C)”; in the assay with E. coli, “E. coli (C)”; in the assay with MRSA, “MRSA (C)”; with E. faecalis, “E. faecalis (C)”. In the assay with microorganisms, the Activities entry is reported as “G B”.

Regarding “PF-401: peptide having multiple activities (YWLSRVTTGHSFAFEKPVPLSLTIK; Peptide with targeting and/or antimicrobial activity)”, the “Organism, effect” value in the assay on S. epidermidis is on record as “S. epidermidis (C)”; with E. coli it was “E. coli (R)”; with MRSA, “MRSA (C)”; in the assay on E. faecalis, “E. faecalis (C)”. For the same substance, the “Target(s)” value in assay [1] (setting [2]) is “S. epidermidis and E. coli and P. aeruginosa and MRSA and E. faecalis and C. jejuni”. Moreover, in the assay on microorganisms, the Activities result was “G B”.

With “PF-410: peptide having multiple activities (FALELIALCRNLFIVYFP; Peptide with targeting and/or antimicrobial activity)”, the “Organism, effect” value with S. epidermidis was “S. epidermidis (C)”; in the assay with E. coli it was “E. coli (S)”; with MRSA, “MRSA (M)”; with E. faecalis it was “E. faecalis (C)”. The Activities entry in the assay on microorganisms is listed as “G B”.

Regarding “PF-439: peptide having multiple activities (chain 1 RVLVLKKFHGIMDGNRNVAVFFVGQ; chain 2 RVLVLKKFHGIMDGNRNVAVFFVGQ; Peptide with targeting and/or antimicrobial activity)”, the “Organism, effect” value is on record as “S. epidermidis (C)” with S. epidermidis; “S. pneumoniae (R)” in the assay with S. pneumoniae; “E. coli (R)” with E. coli; “MRSA (M)” with MRSA; “E. faecalis (C)” with E. faecalis. For the same substance, the Activities entry in the assay on microorganisms is “G B”.

Regarding “PF-440: peptide having multiple activities (chain 1 MFIISPDLFNIAVILYILFFIHDILLLILS; chain 2 MFIISPDLFNIAVILYILFFIHDILLLILS; Peptide with targeting and/or antimicrobial activity)”, the “Organism, effect” value is given as “S. epidermidis (C)” with S. epidermidis; “S. pneumoniae (R)” with S. pneumoniae; “E. coli (R)” with E. coli; “MRSA (C)” in the assay on MRSA; “E. faecalis (C)” in the assay on E. faecalis. Further, the Activities result in the assay with microorganisms is listed as “G B”.

With “PF-514: peptide having multiple activities (chain 1 QRFYKLFYHIDLTNEQALKLFQVK; chain 2 QRFYKLFYHIDLTNEQALKLFQVK; Peptide with targeting and/or antimicrobial activity)”, the “Organism, effect” value is “S. epidermidis (C)” in the assay with S. epidermidis, “S. pneumoniae (M)” with S. pneumoniae, “E. coli (R)” with E. coli and “E. faecalis (C)” in the assay with E. faecalis. The “Target(s)” value in assay [1] (setting [2]) was “S. epidermidis and E. coli and P. aeruginosa and C. albicans and MRSA and S. pneumoniae and E. faecalis and C. jeikeium”. In addition, the Activities result in the assay with microorganisms is “G B”.

Take “PF-519: peptide having multiple activities (chain 1 YLVYSGVLATAAAF-NH2; chain 2 YLVYSGVLATAAAF-NH2)”: the “Target(s)” value in assay [1] (setting [2]) is “M. luteus; also recorded: E. faecalis; also recorded: C. jeikeium”. Also, in the assay on microorganisms, the Activities result is “G B”. Further, the “Organism, effect” value in the assay on S. pneumoniae is given as “S. pneumoniae (S)”; with E. coli, “E. coli (R)”; with MRSA it was “MRSA (C)”; with E. faecalis, “E. faecalis (C)”.

For the substance “PF-534 (KYFHLFYHNIIHYSKQHLSLKVDFKN; Peptide with targeting and/or antimicrobial activity)”, the “Organism, effect” value with S. epidermidis is given as “S. epidermidis (C)”; in the assay with S. pneumoniae, “S. pneumoniae (R)”; in the assay with E. coli, “E. coli (R)”; with MRSA, “MRSA (C)”; in the assay with E. faecalis, “E. faecalis (C)”.

The values above are taken from patent publication US20110039762A1, “TARGETED ANTIMICROBIAL MOIETIES” (C3 JIAN, INC., priority 2009, published 2011).
